Reference: US10196383B2, “Substituted quinazoline compounds and preparation and uses thereof” (Sunshine Lake Pharma Co., Ltd., priority 2015, dated 2019)

Experiments:
humanized OX1 receptor = humanized OX1 receptor (Homo sapiens (Human), UniProt O43613); assay: Antagonism of humanized OX1 receptor assay (fluorescence detection of free cytoplasmic calcium, 3 nM orexin A); type: cell-based; settings: humanized OX1 receptor transfected CHO cells
Experimental: The capability of the compounds to the antagonism of humanized OX1 receptor transfected to the Chinese hamster ovary (CHO) cells was evaluated by the method of fluorescence detected free calcium concentration in the cytoplasm. The cells were suspended in a cell culture medium (invitrogen), and then plated to a microplate with an average density of 2×10^4 cells/well. The fluorescent probes (Fluo4 NW, Invitrogen) was mixed with probenecid Hank's balanced salt solution (invitrogen), followed by addition of 20 mM hydroxyethyl piperazine […] (invitrogen) (pH 7.4). The resulting mixture was eventually added to the microwells containing cells. The cells were incubated at 37° C. for 60 min, and then balanced at 22° C. for 15 min. The microplate was placed in a microplate reader (CellLux, PerkinElmer), and the solution of test compound with different concentrations or Hank's balanced salt solution was added. The microplate containing the solution was incubated for 5 min, followed by the addition of 3 nM of orexin A or a balanced salt solution (as control). The changes of fluorescence intensity proportional to the concentration of calcium ions in the cytoplasm were measured.
With the substrate control as 0 and 3 nM orexin A as 100%, inhibition rate of each compound was recorded. Referring to the compound SB334867, several different concentrations were measured in each experiment. Dose-response curves were made, and IC50 value of each compound was calculated.

humanized OX2 receptor = humanized OX2 receptor (Homo sapiens (Human), UniProt O43614); assay: Antagonism of humanized OX2 receptor assay (fluorescence detection of free cytoplasmic calcium, 10 nM orexin B); type: cell-based; settings: humanized OX2 receptor transfected HEK-293 cells
Experimental: The capability of the compounds to antagonism of humanized OX2 receptor transfected by the HEK-293 cells was evaluated by the method of fluorescence detected free calcium concentration in the cytoplasm. The cells were suspended in cell culture medium (invitrogen), and then added to a microplate with an average density of 3×10^4 cells/well. The fluorescent probes (Fluo4 NW, Invitrogen) was mixed with probenecid Hank's balanced salt solution (invitrogen), followed by addition of 20 mM hydroxyethyl piperazine […] (invitrogen) (pH 7.4). The resulting mixture was eventually added to the microwells containing cells. The cells were incubated at 37° C. for 60 min, and then balanced at 22° C. for 15 min. The microplate was placed in a microplate reader (CellLux, PerkinElmer), and the solution of test compound with different concentrations or Hank's balanced salt solution was added. The microplate containing the solution was incubated for 5 min, followed by the addition of 10 nM of orexin B or a balanced salt solution (as control). The changes of fluorescence intensity proportional to the concentration of calcium ions in the cytoplasm were measured.
With the substrate control as 0 and 10 nM of orexin B as 100%, inhibition rate of each compound was recorded. Referring to the compound JNJ10397049, several different concentrations were measured in each experiment. Dose-response curves were made, and IC50 value of each compound was calculated.

[1] = Pharmacokinetic evaluation with intravenous or oral administration; type: in vivo; settings: rats; for AUC(0-inf) / AUC(0-t) / Cmax / Tmax / clearance / Vd: rat, plasma; for Vd: read-out: Vss
Experimental: Pharmacokinetics of the compound of the present invention in rats, dogs or monkeys was evaluated in the present invention. The compounds of this invention were administered with a saline solution of 5% DMSO+5% Kolliphor HS 15+2% (2% HCl)+88% Saline or 10% DMSO+10% Kolliphor HS 15+80% physiological. For intravenous administration, the animals were given a dose of 1 mg/kg, drew blood (0.3 mL) at the time point of 0.083, 0.25, 0.5, 1.0, 2.0, 4.0, 6.0, 8.0 and 24 h, and centrifuged in 3,000 or 4,000 rpm for 10 min. For oral (p.o.) administration, the animals were given a dose of 2.5 mg/kg or 5 mg/kg, drew blood (0.3 mL) at the time point of 0.25, 0.5, 1.0, 2.0, 4.0, 6.0, 8.0 and 24 h, and centrifuged in 3,000 or 4,000 rpm for 10 min. Plasma solution was collected and was stored at −20° C. or […] until LC/MS/MS analysis.

[2] = intravenous administration, 1 mg/kg

humanized OX2 receptor, sequence (O43614 whole entry): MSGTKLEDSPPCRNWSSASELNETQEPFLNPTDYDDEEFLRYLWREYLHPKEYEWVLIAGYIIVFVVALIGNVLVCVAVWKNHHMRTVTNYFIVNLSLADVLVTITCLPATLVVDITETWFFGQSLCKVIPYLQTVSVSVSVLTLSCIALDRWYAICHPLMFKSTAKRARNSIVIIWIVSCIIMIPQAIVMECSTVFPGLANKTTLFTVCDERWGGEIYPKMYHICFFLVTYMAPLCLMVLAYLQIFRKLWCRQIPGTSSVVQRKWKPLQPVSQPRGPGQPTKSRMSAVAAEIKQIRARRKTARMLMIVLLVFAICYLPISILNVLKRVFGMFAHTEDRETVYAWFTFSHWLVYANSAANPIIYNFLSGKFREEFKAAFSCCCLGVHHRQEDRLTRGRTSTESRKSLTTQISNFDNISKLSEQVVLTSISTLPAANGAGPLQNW
humanized OX1 receptor, sequence (O43613 whole entry): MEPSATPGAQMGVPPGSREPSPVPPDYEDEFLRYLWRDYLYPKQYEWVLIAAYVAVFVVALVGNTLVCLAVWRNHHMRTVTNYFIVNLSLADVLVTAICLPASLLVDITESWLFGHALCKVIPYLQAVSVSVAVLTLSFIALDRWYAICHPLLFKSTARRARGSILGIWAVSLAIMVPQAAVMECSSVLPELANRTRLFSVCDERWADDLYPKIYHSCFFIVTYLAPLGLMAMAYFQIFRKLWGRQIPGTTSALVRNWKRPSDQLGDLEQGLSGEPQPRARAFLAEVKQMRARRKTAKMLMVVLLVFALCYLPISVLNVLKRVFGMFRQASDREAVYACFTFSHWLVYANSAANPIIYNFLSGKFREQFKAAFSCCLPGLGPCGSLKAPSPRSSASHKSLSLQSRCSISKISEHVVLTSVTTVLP

IC50 (humanized OX1 receptor) | IC50 (humanized OX2 receptor) | AUC(0-inf) [1, 2] | AUC(0-t) [1, 2] | Cmax [1, 2] | Tmax [1, 2] | clearance [1, 2] | Vd [1, 2] | AUC(0-inf) ([1]; oral administration, 2.5 mg/kg) | AUC(0-t) ([1]; oral administration, 2.5 mg/kg) | Cmax ([1]; oral administration, 2.5 mg/kg) | Tmax ([1]; oral administration, 2.5 mg/kg) | F ([1]; oral administration, 2.5 mg/kg) | AUC(0-inf) ([1]; oral administration, 5 mg/kg) | AUC(0-t) ([1]; oral administration, 5 mg/kg) | Cmax ([1]; oral administration, 5 mg/kg) | Tmax ([1]; oral administration, 5 mg/kg) | F ([1]; oral administration, 5 mg/kg) | Structure (SMILES)
543 nM | 169 nM | 866 ng·h/mL | 865 ng·h/mL | 1400 ng/mL | 4.98 min | 19.2 mL/min/kg | 0.66 L/kg | 1780 ng·h/mL | 1770 ng·h/mL | 1940 ng/mL | 20 min | 81.8% |  |  |  |  |  | Cc1ccc(-n2nccn2)c(C(=O)N2CCN(c3nc4ccc(F)cc4c(=O)[nH]3)CCC2C)c1 (centres unmarked) [Example 2, 6-fluoro-2-(5-methyl-4-(5-methyl-2-(2H-1,2,3-triazol-2-yl)benzoyl)-1,4-diazepan-1-yl)quinazolin-4(3H)-one]
322 nM | 300 nM |  |  |  |  |  |  |  |  |  |  |  |  |  |  |  |  | Cc1ccc(-n2nccn2)c(C(=O)N2CCCN(c3nc4ccc(F)cc4c(=O)[nH]3)CC2)c1 [Example 1, 6-fluoro-2-(4-(5-methyl-2-(2H-1,2,3-triazol-2-yl)benzoyl)-1,4-diazepan-1-yl)quinazolin-4(3H)-one]
276 nM | 263 nM |  |  |  |  |  |  |  |  |  |  |  |  |  |  |  |  | Cc1ccc(-n2nccn2)c(C(=O)N2CCCN(c3nc4ccc(Cl)cc4c(=O)[nH]3)CC2)c1 [Example 5, 6-chloro-2-(4-(5-methyl-2-(2H-1,2,3-triazol-2-yl)benzoyl)-1,4-diazepan-1-yl)quinazolin-4(3H)-one]
 |  | 3700 ng·h/mL | 3450 ng·h/mL | 4080 ng/mL | 4.98 min | 4.52 mL/min/kg | 1.33 L/kg |  |  |  |  |  | 15000 ng·h/mL | 14300 ng·h/mL | 13800 ng/mL | 15 min | 83.1% | O=C(c1ccccc1-n1nccn1)N1CCCN(c2nc3ccc(Cl)cc3c(=O)[nH]2)CC1 [Example 7, 2-(4-(2-(2H-1,2,3-triazol-2-yl)benzoyl)-1,4-diazepan-1-yl)-6-chloroquinazolin-4(3H)-one]
367 nM | 221 nM | 1740 ng·h/mL | 1730 ng·h/mL | 3660 ng/mL | 4.98 min | 9.66 mL/min/kg | 0.292 L/kg |  |  |  |  |  | 6840 ng·h/mL | 6800 ng·h/mL | 5680 ng/mL | 20 min | 79% | Cc1ccc(-n2nccn2)c(C(=O)N2CCN(c3nc4ccc(Cl)cc4c(=O)[nH]3)CCC2C)c1 (centres unmarked) [Example 6, 6-chloro-2-(5-methyl-4-(5-methyl-2-(2H-1,2,3-triazol-2-yl)benzoyl)-1,4-diazepan-1-yl)quinazolin-4(3H)-one]
